Reference: ChEMBL document CHEMBL1201862, “PubChem BioAssay data set” (2004)
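Cultured in 96-well plates, cells were exposed to test compound for 48 hours across five concentrations. GI50: concentration for 50% inhibition of growth.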 Active and inactive are the calls of the source. Cut-off read from the data, not from the text of the source: active = GI50 up to about 1.1 µM and inactive = higher.

Tests used:
Experiment in all cases: NCI-60 cell line screen, 48 h
786-0 = system: 786-0
A498 = system: A498
A549 = system: A549
ACHN = system: ACHN
BT-549 = system: BT-549
CAKI-1 = system: CAKI-1
CCRF-CEM = system: CCRF-CEM
COLO 205 = system: COLO 205
DU-145 = system: DU-145
EKVX = system: EKVX
HCC 2998 = system: HCC 2998
HCT-116 = system: HCT-116
HCT-15 = system: HCT-15
HL-60 = system: HL-60
HOP-62 = system: HOP-62
HOP-92 = system: HOP-92
HT-29 = system: HT-29
Hs-578T = system: Hs-578T
IGROV-1 = system: IGROV-1
K562 = system: K562
KM12 = system: KM12
LOX IMVI = system: LOX IMVI
M14 = system: M14
MCF7 = system: MCF7
MDA-MB-231 = system: MDA-MB-231
MDA-MB-435 = system: MDA-MB-435
MDA-N = system: MDA-N
MOLT-4 = system: MOLT-4
Malme-3M = system: Malme-3M
NCI-H226 = system: NCI-H226
NCI-H23 = system: NCI-H23
NCI-H460 = system: NCI-H460
NCI-H522 = system: NCI-H522
NCI/ADR-RES = system: NCI/ADR-RES
OVCAR-3 = system: OVCAR-3
OVCAR-4 = system: OVCAR-4
OVCAR-5 = system: OVCAR-5
OVCAR-8 = system: OVCAR-8
PC-3 = system: PC-3
RPMI-8226 = system: RPMI-8226
RXF 393 = system: RXF 393
SF-268 = system: SF-268
SF-295 = system: SF-295
SF-539 = system: SF-539
SK-MEL-28 = system: SK-MEL-28
SK-MEL-2 = system: SK-MEL-2
SK-MEL-5 = system: SK-MEL-5
SK-OV-3 = system: SK-OV-3
SN12C = system: SN12C
SNB-19 = system: SNB-19
SNB-75 = system: SNB-75
SW-620 = system: SW-620
T47D = system: T47D
TK-10 = system: TK-10
U-251 = system: U-251
UACC-257 = system: UACC-257
UACC-62 = system: UACC-62
UO-31 = system: UO-31
SR = system: SR

CC(C)=CCC/C(C)=C/CC/C(C)=C/CC/C(C)=C/C=C/C=C(\C)CC/C=C(\C)CC/C=C(\C)CCC=C(C)C
GI50 (786-0): 22.2 µM (inactive)
GI50 (A498): > 100 µM (inactive)
GI50 (A549): 60 µM (inactive)
GI50 (ACHN): 31.5 µM (inactive)
GI50 (BT-549): > 100 µM (inactive)
GI50 (CAKI-1): 16.8 µM (inactive)
GI50 (CCRF-CEM): 24.6 µM (inactive)
GI50 (COLO 205): > 100 µM (inactive)
GI50 (DU-145): > 56.9 µM (inactive)
GI50 (EKVX): 32.3 µM (inactive)
GI50 (HCC 2998): > 100 µM (inactive)
GI50 (HCT-116): > 92.5 µM (inactive)
GI50 (HCT-15): > 100 µM
GI50 (HL-60): 3.02 µM (inactive)
GI50 (HOP-62): 72.6 µM (inactive)
GI50 (HOP-92): 45.5 µM (inactive)
GI50 (HT-29): > 100 µM (inactive)
GI50 (Hs-578T): > 82.6 µM (inactive)
GI50 (IGROV-1): 17.5 µM (inactive)
GI50 (K562): 17.2 µM (inactive)
GI50 (KM12): 31.8 µM (inactive)
GI50 (LOX IMVI): 21.2 µM (inactive)
GI50 (M14): > 100 µM (inactive)
GI50 (MCF7): 44.2 µM (inactive)
GI50 (MDA-MB-231): > 70.5 µM (inactive)
GI50 (MDA-MB-435): > 76.6 µM (inactive)
GI50 (MDA-N): > 68.5 µM (inactive)
GI50 (MOLT-4): 19.7 µM (inactive)
GI50 (Malme-3M): > 77.1 µM (inactive)
GI50 (NCI-H226): > 100 µM (inactive)
GI50 (NCI-H23): 68.2 µM (inactive)
GI50 (NCI-H460): 34.8 µM (inactive)
GI50 (NCI-H522): 14.8 µM (inactive)
GI50 (NCI/ADR-RES): 50.7 µM (inactive)
GI50 (OVCAR-3): > 100 µM (inactive)
GI50 (OVCAR-4): > 57.4 µM (inactive)
GI50 (OVCAR-5): > 100 µM (inactive)
GI50 (OVCAR-8): > 63 µM (inactive)
GI50 (PC-3): > 81.5 µM (inactive)
GI50 (RPMI-8226): 38.4 µM (inactive)
GI50 (RXF 393): > 100 µM (inactive)
GI50 (SF-268): > 58.7 µM (inactive)
GI50 (SF-295): > 100 µM (inactive)
GI50 (SF-539): > 100 µM (inactive)
GI50 (SK-MEL-28): > 100 µM (inactive)
GI50 (SK-MEL-2): > 100 µM (inactive)
GI50 (SK-MEL-5): 44.1 µM (inactive)
GI50 (SK-OV-3): > 100 µM (inactive)
GI50 (SN12C): > 39.4 µM (inactive)
GI50 (SNB-19): > 100 µM (inactive)
GI50 (SNB-75): > 71.6 µM (inactive)
GI50 (SW-620): > 100 µM (inactive)
GI50 (T47D): 72.1 µM (inactive)
GI50 (TK-10): > 58.7 µM (inactive)
GI50 (U-251): 63.7 µM (inactive)
GI50 (UACC-257): > 100 µM (inactive)
GI50 (UACC-62): > 100 µM (inactive)
GI50 (UO-31): 25.3 µM (inactive)

CSCCC(NC(=O)C(Cc1c[nH]c2ccccc12)NC(=O)CCNC(=O)OC(C)(C)C)C(=O)NC(CC(=O)O)C(=O)NC(Cc1ccccc1)C(N)=O (stereo not drawn)
GI50 (786-0): > 50 µM (inactive)
GI50 (A498): > 50 µM (inactive)
GI50 (A549): > 50 µM (inactive)
GI50 (BT-549): > 50 µM (inactive)
GI50 (CAKI-1): > 50 µM (inactive)
GI50 (CCRF-CEM): > 50 µM (inactive)
GI50 (COLO 205): > 50 µM (inactive)
GI50 (DU-145): > 50 µM (inactive)
GI50 (EKVX): > 50 µM (inactive)
GI50 (HCC 2998): > 50 µM (inactive)
GI50 (HCT-116): > 50 µM (inactive)
GI50 (HL-60): > 50 µM (inactive)
GI50 (HOP-62): > 50 µM (inactive)
GI50 (HOP-92): > 50 µM (inactive)
GI50 (HT-29): > 50 µM (inactive)
GI50 (Hs-578T): > 50 µM (inactive)
GI50 (IGROV-1): > 50 µM (inactive)
GI50 (K562): > 50 µM (inactive)
GI50 (KM12): > 50 µM (inactive)
GI50 (LOX IMVI): > 50 µM (inactive)
GI50 (M14): > 50 µM (inactive)
GI50 (MCF7): > 50 µM (inactive)
GI50 (MDA-MB-231): > 50 µM (inactive)
GI50 (MDA-MB-435): > 50 µM (inactive)
GI50 (MDA-N): > 50 µM (inactive)
GI50 (MOLT-4): > 50 µM (inactive)
GI50 (NCI-H226): > 50 µM (inactive)
GI50 (NCI-H522): > 50 µM (inactive)
GI50 (NCI/ADR-RES): > 50 µM (inactive)
GI50 (OVCAR-3): > 50 µM (inactive)
GI50 (OVCAR-5): > 50 µM (inactive)
GI50 (PC-3): > 50 µM (inactive)
GI50 (RPMI-8226): > 50 µM (inactive)
GI50 (RXF 393): > 50 µM (inactive)
GI50 (SF-268): > 50 µM (inactive)
GI50 (SF-295): > 50 µM (inactive)
GI50 (SF-539): > 50 µM (inactive)
GI50 (SK-MEL-28): > 50 µM (inactive)
GI50 (SK-MEL-2): > 50 µM (inactive)
GI50 (SK-MEL-5): > 50 µM (inactive)
GI50 (SK-OV-3): > 50 µM (inactive)
GI50 (SN12C): > 50 µM (inactive)
GI50 (SNB-75): > 50 µM (inactive)
GI50 (SW-620): > 50 µM (inactive)
GI50 (T47D): > 50 µM (inactive)
GI50 (TK-10): > 50 µM (inactive)
GI50 (U-251): > 50 µM (inactive)
GI50 (UACC-257): > 50 µM (inactive)
GI50 (UACC-62): > 50 µM (inactive)

O=C(C#Cc1ccccc1)N1CCCCC1
GI50 (786-0): 14.4 µM (inactive)
GI50 (A498): > 100 µM (inactive)
GI50 (A549): 76.9 µM (inactive)
GI50 (ACHN): 58.1 µM (inactive)
GI50 (BT-549): > 100 µM (inactive)
GI50 (CAKI-1): 83.9 µM (inactive)
GI50 (CCRF-CEM): 50.8 µM (inactive)
GI50 (COLO 205): > 100 µM (inactive)
GI50 (DU-145): 55.8 µM (inactive)
GI50 (EKVX): 63.2 µM (inactive)
GI50 (HCC 2998): 84.7 µM (inactive)
GI50 (HCT-116): 16.8 µM (inactive)
GI50 (HCT-15): 49.9 µM
GI50 (HL-60): 21.9 µM (inactive)
GI50 (HOP-62): > 100 µM (inactive)
GI50 (HOP-92): > 100 µM (inactive)
GI50 (HT-29): 29 µM (inactive)
GI50 (Hs-578T): > 100 µM (inactive)
GI50 (IGROV-1): 65 µM (inactive)
GI50 (K562): 73.6 µM (inactive)
GI50 (KM12): > 100 µM (inactive)
GI50 (LOX IMVI): 48.9 µM (inactive)
GI50 (M14): 84.1 µM (inactive)
GI50 (MCF7): 44.4 µM (inactive)
GI50 (MDA-MB-231): 72.3 µM (inactive)
GI50 (MDA-MB-435): 63.5 µM (inactive)
GI50 (MDA-N): 86.5 µM (inactive)
GI50 (MOLT-4): > 100 µM (inactive)
GI50 (Malme-3M): 40 µM (inactive)
GI50 (NCI-H226): > 100 µM (inactive)
GI50 (NCI-H23): 45.3 µM (inactive)
GI50 (NCI-H460): 44.6 µM (inactive)
GI50 (NCI-H522): > 100 µM (inactive)
GI50 (OVCAR-3): 81.7 µM (inactive)
GI50 (OVCAR-4): 80 µM (inactive)
GI50 (OVCAR-5): > 100 µM (inactive)
GI50 (OVCAR-8): 48.6 µM (inactive)
GI50 (PC-3): 77.4 µM (inactive)
GI50 (RPMI-8226): 62.5 µM (inactive)
GI50 (SF-268): 90.2 µM (inactive)
GI50 (SF-295): > 100 µM (inactive)
GI50 (SF-539): > 100 µM (inactive)
GI50 (SK-MEL-28): > 100 µM (inactive)
GI50 (SK-MEL-2): > 100 µM (inactive)
GI50 (SK-MEL-5): 56.4 µM (inactive)
GI50 (SK-OV-3): > 100 µM (inactive)
GI50 (SN12C): > 100 µM (inactive)
GI50 (SNB-19): > 100 µM (inactive)
GI50 (SNB-75): > 100 µM (inactive)
GI50 (SR): 80.4 µM (inactive)
GI50 (SW-620): 97.9 µM (inactive)
GI50 (T47D): 52.6 µM (inactive)
GI50 (TK-10): > 100 µM (inactive)
GI50 (U-251): 84.1 µM (inactive)
GI50 (UACC-257): > 100 µM (inactive)
GI50 (UACC-62): > 100 µM (inactive)
